Data on four compounds can be found in publication PMC8287923, “A small-molecule chemical interface for molecular programs” (Nucleic Acids Research, 2021).

Assay type in all cases: biochemical
One test addresses T1, LacI (Escherichia coli, UniProt P03023).
T1 construct: purified LacI with C-terminal His-tag (dimer)
Description: purified LacI with O1 operator DNA template (psTLacI); PEN-DNA fluorescent switch dose response ([…]).

Test [1] deals with T2, Tryptophan synthase subunit B (TrpB), EcB (Escherichia coli, UniProt P0A879, M149T/N171D).
T2 construct: purified standalone TrpB variant (EcB)
T2 sequence (P0A879 2-397 M149T/N171D): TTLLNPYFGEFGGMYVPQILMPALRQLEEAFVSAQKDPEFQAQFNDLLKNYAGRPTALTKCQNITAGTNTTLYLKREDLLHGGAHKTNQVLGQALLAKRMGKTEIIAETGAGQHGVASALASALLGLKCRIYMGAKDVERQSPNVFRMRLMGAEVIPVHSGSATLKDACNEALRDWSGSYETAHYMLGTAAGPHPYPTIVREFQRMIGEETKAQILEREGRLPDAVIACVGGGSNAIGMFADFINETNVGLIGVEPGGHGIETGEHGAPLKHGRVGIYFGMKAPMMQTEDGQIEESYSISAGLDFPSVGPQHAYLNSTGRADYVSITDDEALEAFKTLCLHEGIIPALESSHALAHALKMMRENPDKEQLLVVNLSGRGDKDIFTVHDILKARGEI
Description: HPLC of overnight enzymatic conversion of indole and L-serine to L-trp.

A further test concerns the target TrpR (Escherichia coli, UniProt P0A881). Put plainly: purified TrpR with operator DNA template (psTTrpR); PEN-DNA fluorescent switch dose response, Hill fit.

`CC(C)S[C@@H]1O[C@H](CO)[C@H](O)[C@H](O)[C@H]1O` [IPTG, isopropyl β-d-1-thiogalactopyranoside] returned a Kd at LacI of roughly 100 µM.

Turning to `N[C@@H](CO)C(=O)O` [L-serine], the “HPLC of overnight enzymatic conversion of indole and L-serine to L-trp” value in test [1] was “Enzymatic activity of EcB L-trp synthesis was confirmed through HPLC evaluation”.

In turn, `N[C@@H](Cc1c[nH]c2ccccc12)C(=O)O` [L-trp] had a Kd at TrpR of 24 µM.

With `c1ccc2[nH]ccc2c1` [indole], in test [1], the “HPLC of overnight enzymatic conversion of indole and L-serine to L-trp” value is listed as “Enzymatic activity of EcB L-trp synthesis was confirmed through HPLC evaluation”.
